According to ChEMBL document CHEMBL3045600, “Synthesis and Fungicidal Activities of Phenoxyphenyl Alkoxyiminoacetamide Derivatives” (J Pestic Sci, 1998):

Legend:
Format in all cases: functional
[1] = test system: Pseudoperonospora cubensis; test: Fungicidal activity against Pseudoperonospora cubensis assessed as cucumber downy mildew disease control at 125 ppm foliar application 24 hr before inoculation on upper surface of leaf by preventive manner
[2] = test system: Thanatephorus cucumeris; test: Fungicidal activity against Thanatephorus cucumeris assessed as rice sheath blight disease control at 2 ppm foliar application for 24 hr before inoculation at 26 +- 2 measured after 5 days by preventive manner
[3] = test system: Podosphaera fuliginea; test: Fungicidal activity against Podosphaera fuliginea assessed as cucumber powdery mildew control under greenhouse at 7.8 ppm foliar application 24 hr after inoculation on upper surface of leaf at 23 +/- 2 degC by curative manner
[4] = test system: Podosphaera fuliginea; test: Fungicidal activity against Podosphaera fuliginea assessed as cucumber powdery mildew control under greenhouse at 125 ppm foliar application 24 hr before inoculation on upper surface of leaf at 23 +/- 2 degC by preventive manner
[5] = test system: Thanatephorus cucumeris; test: Fungicidal activity against Thanatephorus cucumeris assessed as rice sheath blight disease control at 7.8 ppm foliar application for 24 hr before inoculation at 26 +- 2 measured after 5 days by preventive manner
[6] = test system: Botrytis cinerea; test: Fungicidal activity against Botryotinia fuckeliana assessed as cucumber gray mold disease control at 125 ppm foliar application 24 hr before inoculation at 22 +/- 2 degC measured after 3 days by preventive manner
[7] = test system: Pyricularia oryzae; test: Fungicidal activity against Magnaporthe oryzae assessed as rice blast disease control at 0.16 ppm submerged application measured after 7 days
[8] = test system: Podosphaera fuliginea; test: Fungicidal activity against Podosphaera fuliginea assessed as cucumber powdery mildew control under greenhouse at 7.8 ppm foliar application 24 hr before inoculation on upper surface of leaf at 23 +/- 2 degC by preventive manner
[9] = test system: Podosphaera fuliginea; test: Fungicidal activity against Podosphaera fuliginea assessed as cucumber powdery mildew control under greenhouse at 2 ppm foliar application 24 hr before inoculation on upper surface of leaf at 23 +/- 2 degC by preventive manner
[10] = test system: Pseudoperonospora cubensis; test: Fungicidal activity against Pseudoperonospora cubensis assessed as cucumber downy mildew disease control at 31.3 ppm foliar application 24 hr before inoculation on upper surface of leaf by preventive manner
[11] = test system: Botrytis cinerea; test: Fungicidal activity against Botryotinia fuckeliana assessed as cucumber gray mold disease control at 31.3 ppm foliar application 24 hr before inoculation at 22 +/- 2 degC measured after 3 days by preventive manner
[12] = test system: Botrytis cinerea; test: Fungicidal activity against Botryotinia fuckeliana assessed as cucumber gray mold disease control at 2 ppm foliar application 24 hr before inoculation at 22 +/- 2 degC measured after 3 days by preventive manner
[13] = test system: Pyricularia oryzae; test: Fungicidal activity against Magnaporthe oryzae assessed as rice blast disease control at 10 ppm submerged application measured after 7 days
[14] = test system: Podosphaera fuliginea; test: Fungicidal activity against Podosphaera fuliginea assessed as cucumber powdery mildew control under greenhouse at 2 ppm foliar application 24 hr after inoculation on upper surface of leaf at 23 +/- 2 degC by curative manner
[15] = test system: Podosphaera fuliginea; test: Fungicidal activity against Podosphaera fuliginea assessed as cucumber powdery mildew control under greenhouse at 125 ppm foliar application 24 hr after inoculation on upper surface of leaf at 23 +/- 2 degC by curative manner
[16] = test system: Pseudoperonospora cubensis; test: Fungicidal activity against Pseudoperonospora cubensis assessed as cucumber downy mildew disease control at 7.8 ppm foliar application 24 hr before inoculation on upper surface of leaf by preventive manner
[17] = test system: Podosphaera fuliginea; test: Fungicidal activity against Podosphaera fuliginea assessed as cucumber powdery mildew control under greenhouse at 31.3 ppm foliar application 24 hr after inoculation on upper surface of leaf at 23 +/- 2 degC by curative manner
[18] = test system: Botrytis cinerea; test: Fungicidal activity against Botryotinia fuckeliana assessed as cucumber gray mold disease control at 7.8 ppm foliar application 24 hr before inoculation at 22 +/- 2 degC measured after 3 days by preventive manner
[19] = test system: Podosphaera fuliginea; test: Fungicidal activity against Podosphaera fuliginea assessed as cucumber powdery mildew control under greenhouse at 31.3 ppm foliar application 24 hr before inoculation on upper surface of leaf at 23 +/- 2 degC by preventive manner
[20] = test system: Pyricularia oryzae; test: Fungicidal activity against Magnaporthe oryzae assessed as rice blast disease control at 2.5 ppm submerged application measured after 7 days
[21] = test system: Pseudoperonospora cubensis; test: Fungicidal activity against Pseudoperonospora cubensis assessed as cucumber downy mildew disease control at 2 ppm foliar application 24 hr before inoculation on upper surface of leaf by preventive manner
[22] = test system: Thanatephorus cucumeris; test: Fungicidal activity against Thanatephorus cucumeris assessed as rice sheath blight disease control at 31.3 ppm foliar application for 24 hr before inoculation at 26 +- 2 measured after 5 days by preventive manner
[23] = test system: Pyricularia oryzae; test: Fungicidal activity against Magnaporthe oryzae assessed as rice blast disease control at 0.63 ppm submerged application measured after 7 days
[24] = test system: Thanatephorus cucumeris; test: Fungicidal activity against Thanatephorus cucumeris assessed as rice sheath blight disease control at 125 ppm foliar application for 24 hr before inoculation at 26 +- 2 measured after 5 days by preventive manner
[25] = test system: Pseudoperonospora cubensis; test: Fungicidal activity against Pseudoperonospora cubensis assessed as cucumber downy mildew disease control at 125 ppm foliar application 24 hr after inoculation on upper surface of leaf by curative manner
[26] = test system: Pseudoperonospora cubensis; test: Fungicidal activity against Pseudoperonospora cubensis assessed as cucumber downy mildew disease control at 31.3 ppm foliar application 24 hr after inoculation on upper surface of leaf by curative manner
[27] = test system: Botrytis cinerea; test: Fungicidal activity against Botryotinia fuckeliana assessed as cucumber gray mold disease control at 125 ppm foliar application 24 hr after inoculation at 22 +/- 2 degC measured after 3 days by curative manner
[28] = test system: Pseudoperonospora cubensis; test: Fungicidal activity against Pseudoperonospora cubensis assessed as cucumber downy mildew disease control at 2 ppm foliar application 24 hr after inoculation on upper surface of leaf by curative manner
[29] = test system: Pseudoperonospora cubensis; test: Fungicidal activity against Pseudoperonospora cubensis assessed as cucumber downy mildew disease control at 7.8 ppm foliar application 24 hr after inoculation on upper surface of leaf by curative manner
[30] = test system: Botrytis cinerea; test: Fungicidal activity against Botryotinia fuckeliana assessed as cucumber gray mold disease control at 2 ppm foliar application 24 hr after inoculation at 22 +/- 2 degC measured after 3 days by curative manner
[31] = test system: Botrytis cinerea; test: Fungicidal activity against Botryotinia fuckeliana assessed as cucumber gray mold disease control at 7.8 ppm foliar application 24 hr after inoculation at 22 +/- 2 degC measured after 3 days by curative manner
[32] = test system: Botrytis cinerea; test: Fungicidal activity against Botryotinia fuckeliana assessed as cucumber gray mold disease control at 31.3 ppm foliar application 24 hr after inoculation at 22 +/- 2 degC measured after 3 days by curative manner

SMILES	Activity [1] [%]	Activity [2] [%]	Activity [3] [%]	Activity [4] [%]	Activity [5] [%]	Activity [7] [%]	Activity [8] [%]	Activity [9] [%]	Activity [10] [%]	Activity [13] [%]	Activity [14] [%]	Activity [15] [%]	Activity [16] [%]	Activity [17] [%]	Activity [19] [%]	Activity [20] [%]	Activity [21] [%]	Activity [22] [%]	Activity [23] [%]	Activity [24] [%]	other results
CNC(=O)/C(=N/OC)c1ccccc1Oc1ccc(OCc2ccccc2)cc1	<70	<70	<50	<70	<70	50	<70	<70	<70	50	<50	<50	<70	<50	<70	50	<70	<70	50	<70	Activity [6]: <70%; Activity [11]: <70%; Activity [12]: <70%; Activity [18]: <70%
CNC(=O)/C(=N/OC)c1cc(C(F)(F)F)ccc1Oc1ccccc1	<70	<70	–	<70	<70	–	<70	<70	<70	–	–	–	<70	–	<70	–	<70	<70	–	<70	Activity [6]: <70%; Activity [11]: <70%; Activity [12]: <70%; Activity [18]: <70%
CNC(=O)/C(=N/OC)c1cccc([N+](=O)[O-])c1Oc1ccccc1	<70	<70	–	<70	<70	–	<70	<70	<70	–	–	–	<70	–	<70	–	<70	<70	–	<70	Activity [6]: <70%; Activity [11]: <70%; Activity [12]: <70%; Activity [18]: <70%
CNC(=O)/C(=N/OC)c1cc([Si](C)(C)C)ccc1Oc1ccccc1	<70	<70	–	<70	<70	–	<70	<70	<70	–	–	–	<70	–	<70	–	<70	<70	–	<70	Activity [6]: <70%; Activity [11]: <70%; Activity [12]: <70%; Activity [18]: <70%
CNC(=O)/C(=N/OC)c1ccccc1Oc1ccc(Br)cc1	<70	70	50	70	70	50	70	70	<70	50	50	50	<70	50	70	50	<70	70	50	70	Activity [25]: <50%; Activity [26]: <50%; Activity [27]: 50%; Activity [28]: <50%; Activity [29]: <50%; Activity [30]: 50%; Activity [31]: 50%; Activity [32]: 50%
CNC(=O)/C(=N/OC)c1ccccc1Oc1ccc(C(C)(C)C)cc1	<70	70	50	70	70	50	70	70	<70	50	50	50	<70	50	70	50	<70	70	50	70	Activity [25]: <50%; Activity [26]: <50%; Activity [27]: 50%; Activity [28]: <50%; Activity [29]: <50%; Activity [30]: 50%; Activity [31]: 50%; Activity [32]: 50%
CNC(=O)/C(=N/OC)c1ccccc1Oc1cccc(OC)c1	70	70	50	70	70	50	70	70	70	50	50	50	70	50	70	50	70	70	50	70	Activity [25]: <50%; Activity [26]: <50%; Activity [27]: 50%; Activity [28]: <50%; Activity [29]: <50%; Activity [30]: 50%; Activity [31]: 50%; Activity [32]: 50%
CNC(=O)/C(=N/OC)c1ccccc1Oc1cccc(Oc2ccccc2)c1	70	70	50	70	70	50	70	70	70	50	50	50	70	50	70	50	70	70	50	70	Activity [25]: 50%; Activity [26]: 50%; Activity [27]: 50%; Activity [28]: 50%; Activity [29]: 50%; Activity [30]: 50%; Activity [31]: 50%; Activity [32]: 50%
CNC(=O)/C(=N/OC)c1ccccc1Oc1ccc(Cl)c(Cl)c1	70	70	50	70	70	50	70	70	70	50	50	50	70	50	70	50	70	70	50	70	Activity [25]: 50%; Activity [26]: 50%; Activity [27]: 50%; Activity [28]: 50%; Activity [29]: 50%; Activity [30]: 50%; Activity [31]: 50%; Activity [32]: 50%
